Earlier results as cited in patent publication US20150056194A1, “MODIFIED GREEN TEA POLYPHENOLS AND METHODS THEREOF FOR TREATING LIVER DISEASE” (priority 2013, published 2015).

Columns and labels:
influenza = settings: compared with EGCG
[1] = animals receiving tea preparations in cancer prevention studies

Row | Molecule | anti-influenza activity, times more effective than EGCG (influenza) | blood levels [1]
1 | EGCG-palmitate | 24 times | –
2 | O=C(O[C@@H]1Cc2c(O)cc(O)cc2O[C@@H]1c1cc(O)c(O)c(O)c1)c1cc(O)c(O)c(O)c1 [EGCG, (−)-Epigallocatechin-3-gallate] | – | lower than 0.5 μuM
